Results published in PubChem BioAssay (NCI).
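Compound exposure: 48 hours, 5 concentrations, 96-well plates. The concentration for full growth arrest is given as TGI.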 *1 amine or outer side, *2 acyl side, *3 side chain or, on linkers, in order; H or OH if unused. Where a SMILES comes first, the peptide text is derived from it. [ ]: non-standard residue; d: D form. X32 = C[C@H](N[*:1])C(=O)C(C)(C)C(=O)[*:2]; Hmpa(2S,3S) = CC[C@H](C)[C@H](O)C(=O)O; NMeY = CN[C@@H](Cc1ccc(O)cc1)C(=O)O; NMeL = CN[C@@H](CC(C)C)C(=O)O; NMeV = CN[C@H](C(=O)O)C(C)C; βAla = NCCC(=O)O

How the values were obtained:
Assay in all cases: DTP human tumour cell line panel, 48 h
SF-539 CNS = tested on: SF-539 CNS
OVCAR-5 ovarian = tested on: OVCAR-5 ovarian
786-0 renal = tested on: 786-0 renal
BT-549 breast = tested on: BT-549 breast
UACC-257 melanoma = tested on: UACC-257 melanoma
T-47D breast = tested on: T-47D breast
UO-31 renal = tested on: UO-31 renal
SN12C renal = tested on: SN12C renal
SW-620 colon = tested on: SW-620 colon
SK-OV-3 ovarian = tested on: SK-OV-3 ovarian
HOP-62 NSCLC = tested on: HOP-62 NSCLC

SMILES | TGI (SF-539 CNS) [µM] | TGI (OVCAR-5 ovarian) [µM] | TGI (786-0 renal) [µM] | TGI (BT-549 breast) [µM] | TGI (UACC-257 melanoma) [µM] | TGI (T-47D breast) [µM] | TGI (UO-31 renal) [µM] | TGI (SN12C renal) [µM] | TGI (SW-620 colon) [µM] | TGI (SK-OV-3 ovarian) [µM] | TGI (HOP-62 NSCLC) [µM]
COc1ccc2nc(-c3ccc(O)cc3)sc2c1 | 37.1 | 31.6 | 29.1 | 36.3 | 39 | 36.7 | 30.1 | 39.5 | 44.5 | 91.2 | 
CC[C@H](C)[C@@H]1OC(=O)CCNC(=O)[C@@H](C)NC(=O)C(C)(C)C(=O)[C@H](C)NC(=O)[C@H](Cc2ccc(OC)cc2)N(C)C(=O)[C@H](C(C)C)N(C)C(=O)CNC(=O)[C@H](CC(C)C)N(C)C(=O)CNC1=O (cyclo(G[NMeL]G[NMeV][NMeY](Me)[X32][dA][βAla][Hmpa(2S,3S)])) | > 33.6 | > 31.2 | 12.7 | 13.6 | > 25.9 | > 50 | 16 | > 50 | > 50 | 4.11 | 10.6
CCCCCCCCCCCCCCCCCCN(C)CC(COP(=O)([O-])OCC[N+](C)(C)C)OC (stereo unspecified) | 40.3 | 11.1 | 14.7 | > 100 | 56.4 | > 100 | 48.8 | > 50.6 | 47 | 27.4 | 28.4
CCOC(=O)c1ccc(NCC#CCN2CCCCC2)cc1 | > 100 | > 100 | > 100 | > 100 |  | > 100 | > 100 | > 100 | > 100 | > 100 | > 100
C=CCc1cccc2cc(C(=O)Nc3ccccn3)c(=N)oc12 | > 100 | > 100 | > 100 | > 100 | > 100 | > 100 |  | > 100 | > 100 | > 100 | > 100
C[C@@H]1CC[C@@H]2[C@@H](C1)O[C@@H]([C@H](C)OCc1ccccc1)SC2(C)C | > 100 | 31.7 | 62.1 | > 100 | 73.3 | 32.9 | 29.6 | 42.4 | 36.3 | > 100 | > 100
C/C(=N\NC(=S)NCCCNC(=S)N/N=C(\C)c1ccccn1)c1ccccn1 | 8.72 | > 90.3 | 6.07 | 21.9 | 29 | > 24.1 | > 54.1 | 11.2 | > 100 | > 35.1 | 20.7
O=c1/c(=C/c2ccc(-c3ccc(Cl)cc3Cl)o2)sc2n1[C@@H](c1ccc(Cl)cc1)C=C(c1cc(F)c(Cl)cc1Cl)N=2 | > 100 | > 100 | > 100 | > 100 | > 100 | > 100 | > 100 | > 100 | > 100 | 61.7 | 34.6
CC(C)(C)c1cc(O)ccc1O | > 100 | > 100 | > 67 | > 100 | > 21.7 | 41.9 | > 72.8 | > 100 | > 100 | > 100 | > 100
CC(=O)Nc1c(C)cc2c(nc3n2CCC3O)c1[N+](=O)[O-] (stereo unspecified) | > 100 | > 100 | > 100 | > 100 | > 100 | > 100 | > 100 | > 100 | > 100 | > 100 | 
CO/N=C(\C)c1cccc(Nc2c3ccccc3nc3occc23)c1 | 21.5 | 46.8 | 29.7 | 48.8 | 25.6 | 28.8 | 31.5 | 38 |  | 36.4 | 20.2
COC(=O)C1(C)C=CC(=O)C2(C)C1C(O)C1OC3CC(c4ccoc4)C(C)=C3C1(C)C2CC(=O)O (stereo unspecified) | > 100 | > 100 | > 100 | > 100 | > 100 | > 100 | > 100 | > 100 | > 100 | > 100 | 
Cn1c(-c2cccc([N+](=O)[O-])c2)[n+](C)c2ccccc21 | > 100 | > 100 | > 100 | > 100 | > 100 | > 100 | > 100 |  | > 100 | > 100 | > 100
CN(C)c1nc(Cl)c2c(-c3ccccc3)c(-c3ccccc3)oc2n1 | > 100 | > 100 | > 100 | 97.7 | > 100 | > 100 | > 100 | > 100 | > 100 | > 100 | 
CCC(C#N)NCc1cccc(CNC(C#N)CC)c1 (stereo unspecified) | > 100 | 34.2 | > 100 | > 100 | > 100 | > 100 | > 100 | > 100 | > 100 | 32.3 | 
Cn1c2ccccc2c(=O)c2cccc(C(=O)NC(CCC(N)=O)C(=O)O)c21 (stereo unspecified) | > 100 | > 100 | > 100 | > 100 | > 100 | > 100 |  | > 100 | > 100 | > 100 | > 100
